We go through ten molecules from paper PMC9324693, “α-Hydroxylactams as Efficient Entries to Diversely Functionalized Ferrociphenols: Synthesis and Antiproliferative Activity Studies” (Molecules, 2022).

A short description of data set [1]: Solubility tests by shaking suspensions and RP-HPLC analysis of supernatants. Format: physicochemical. The conditions noted are these: for solubility in aqueous medium: water or PBS, shaken overnight at room temperature, RP-HPLC of supernatants, theoretical concentration 1 mM. The protocol: Due to water insolubility being a known issue for the ferrocidiphenol family, we exploited this strategy to attach substituents that could increase their solubility in a biologically relevant context. Thus, attaching short and monodisperse PEG chains seemed interesting. The tetraethylene glycol chain was readily grafted to A to afford 22 in 79% yield at room temperature in less than 3 h.
Figure S50: Solubility studies by RP-HPLC analysis of compounds 18 (A), 20 (B) and […]
A given amount of compounds 18, 20 and 22 was weighted and suspended in a given volume of tested solvent (DMSO, MeOH, PBS and H2O) to reach a theoretical concentration of 1 mM. Suspensions were sonicated for 1 min and shaken at R.T. for 18 h. The resulting solutions were filtrated (pore size 0.2 µm) and diluted to 100 µM in MeCN (for the solutions in organic solvents). HPLC analysis was performed on Nucleodur C18 column, (100 Å , 5 µm, 4.6 x 150 mm, Macherey-Nagel) using […]
(also on this page, place not known: MeOH DMSO PBS – H2O A PBS MeOH DMSO PBS B H2O MeOH DMSO PBS – H2O C) […]

Another data set concerns MDA-MB-231. Nature of the data set: MTT cell viability assay on MDA-MB-231 cells. Format: cell-based. The settings on record: for EC50: 96-well plates, 4000 cells/well, viability after 3 days by MTT, mean ± SD of three independent experiments. The protocol: (§1) A prerequisite to further bioorthogonal modifications is to preserve the biological properties of ferrociphenol compounds. Then, the impact of some of the grafted substituents on the antiproliferative activity was examined by a classical MTT cell viability assay on the two breast cancer cell lines MDA-MB-231 and MCF-7 as well as on the non-tumorigenic cell line hTERT-RPE1 (Table 3). The two cancer cell lines were chosen since most of the previously reported data on ferrocifens were carried out on these cellular models. The experimental protocol is described in Section 3.14., and it is important to emphasize here that the EC50 values reported in Table 3 are not to be compared to the IC50 values reported in the literature, since the assay conditions are different. For this reason, we included as a reference the ferrocenyl derivative of hydroxytamoxifen Fc-OH-TAM-3 [8] that is known to be cytotoxic to numerous cell lines. […] This feature was taken into account when performing data fitting.
(§2) MDA-MB-231, MCF-7, and hTERT-RPE1 cells were obtained from ATCC. Cells were maintained in a monolayer culture in DMEM with phenol red with Glutamax I (MDA-MB-231) or 2 mM L-glutamine (MCF-7) or 15 mM HEPES (hTERT-RPE1) supplemented with 10% FBS at 37 °C in a humidified atmosphere and 5% CO2. Stock solutions of the complexes were prepared in DMSO. Cells were seeded in 96-well plates at a density of 4000 cells/well. After overnight attachment, a dilution series of the compounds were added in the medium, and cells were incubated for a further 72 h. […] Cell viability was evaluated by using a colorimetric method based on the tetrazolium salt MTT [3-(4,5-dimethylthiazol-2-yl)-2,5-diphenyltetrazolium bromide], which is reduced by viable cells to yield purple formazan crystals. After 72 h, the medium was removed and the cells were incubated with MTT solution in PBS (10 μL of a 5 mg/mL) for 2–3 h of incubation. The formed purple formazan crystals were dissolved in 100 μL DMSO by thorough shaking, and the absorbance at 560 nm was read using a microplate reader (FLUOstar OPTIMA, BMG Labtech, Ortenberg, Germany). Each test was performed with at least three replicates and repeated at least three times. EC50 were determined using Dr Fit software.
(In general: Tetrazolium dyes change colour on reduction, which living cells bring about.)

The target in a further data set is T1, HRP (Armoracia rusticana, UniProt P00433).
T1 construct: purchased
T1 sequence (P00433 31-338 limits assumed): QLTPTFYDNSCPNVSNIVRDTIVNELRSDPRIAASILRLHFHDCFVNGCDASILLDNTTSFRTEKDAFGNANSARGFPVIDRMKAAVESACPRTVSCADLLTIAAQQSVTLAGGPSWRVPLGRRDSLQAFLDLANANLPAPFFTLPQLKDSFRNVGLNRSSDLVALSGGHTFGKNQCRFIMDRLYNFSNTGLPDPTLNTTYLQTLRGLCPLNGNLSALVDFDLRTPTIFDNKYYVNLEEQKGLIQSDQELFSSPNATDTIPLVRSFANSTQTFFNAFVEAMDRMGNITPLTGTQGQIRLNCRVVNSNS
Nature of the data set: Enzymatic oxidation with HRP and H2O2. Format: biochemical. The conditions noted are these: fourfold molar excess of H2O2, HRP, pH 8.1; λmax 571–572 nm. The procedure:
Enzymatic oxidation of 19, 20, 22, 23, and 25 was performed with a fourfold molar excess of H2O2 in the presence of HRP at pH 8.1. […] This behavior is reminiscent of that previously observed for a structurally related diphenol complex, which lets us conclude that enzymatic oxidation of 19, 20, 22, 23, and 25 affords the corresponding quinone methide in the anionic phenolate form, regardless of the substituent grafted from the phthalimide ring.
Figure S51. UV-vis spectra of compounds 19, 20, 22, 23 and 25 (50 µM) treated by HRP (46 nM) and H2O2 (200 µM) in 0.2 M TRIS buffer pH 8.1. Conversion to the phenolate form of the quinone methides is assessed by the appearance of the characteristic bands at ca. 570 and 360 nm. […]

A further data set deals with MCF-7. As to the kind of experiment: MTT cell viability assay on MCF-7 cells. Format: cell-based. The settings on record: for EC50: 96-well plates, 4000 cells/well, viability after 3 days by MTT, mean ± SD of three independent experiments. The protocol:
as §1, §2

The subject of a further data set is hTERT-RPE1. Nature of the data set: MTT cell viability assay on non-tumorigenic hTERT-RPE1 cells. Format: cell-based. The conditions noted are these: for EC50: 96-well plates, 4000 cells/well, viability after 3 days by MTT, mean ± SD of three independent experiments; for toxicity on hTERT-RPE1 compared with MCF-7: comparison of EC50 values. The procedure:
as §1, §2

Data set [2] has as its system glioblastoma cell model U87. Also noted: method as in PMID 26136201. The settings on record: cited from earlier work.
In data set [3] the test system is triple negative breast cancer cell line MDA-MB-231. The settings on record: measured after 5 days of incubation (stated for B and C); cited from earlier work.
The test system of data set [4] is NCI-60 panel of human cancer cells. Also noted: method as in PMID 30977944. The conditions noted are these: read-out: mean GI50 (half maximal growth inhibition); cited from earlier work.

In general, EC50 refers to the concentration that produces a half-maximal response. As usually defined, the IC50 is the concentration at which inhibition is half-maximal. For orientation: GI50 means the concentration at which growth is held to half of that of the control.

Regarding “O-{2,3-Dihydro-2-[4-ferrocenyl-5,5-bis-(4-hydroxyphenyl)-pent-4-enyl]-1H-isoindol-1-one-3-yl}-24-azido-1,4,7,10,13,16,19,22-octaoxatetracosane [Compound 24]”, the “solubility in aqueous medium” value in data set [1] is listed as “none of these compounds were soluble in aqueous medium”.

On to “2,3-Dihydro-3-(2-methoxycarbonylethylthio)-2-[4-ferrocenyl-5,5-bis-(4-hydroxyphenyl)-ent-4-enyl]-1H-isoindol-1-one [Compound 25]”, for which the 50% effective concentration (EC50) in the data set with MDA-MB-231 came to 18 ± 0.4 µM; in the data set on MCF-7, 4.7 ± 1.4 µM; in the data set with hTERT-RPE1, 9.1 ± 0.4 µM. Also, the “enzymatic oxidation to quinone methide” value at HRP is listed as “rapidly converted to bright pink adducts”. For the same molecule, in the data set on hTERT-RPE1, the “toxicity on hTERT-RPE1 compared with MCF-7” value is on record as “twice more toxic”.

As to `O=C1c2ccccc2C(=O)N1CCCC[c-]1cccc1.[Fe+2].c1cc[cH-]c1` [Compound 3h, N-(4-ferrocenylbutyl) Phthalimide], the EC50 with MDA-MB-231, with MCF-7 and in the data set on hTERT-RPE1 was more than 50 µM each time. Moreover, the “inhibition of cell growth, MDA-MB-231” value with MDA-MB-231 (MTT, 72 h) is given as “did not inhibit cell growth”. For the same molecule, the “inhibition of cell growth, MCF-7” value with MCF-7 (MTT, 72 h) is “did not inhibit cell growth”. For the same molecule, in the data set on hTERT-RPE1 (MTT, 72 h), the “inhibition of cell growth, hTERT-RPE1” value is listed as “did not inhibit cell growth”.

For `COCCOCCOCCOCCOCCOCCOCCSC1c2ccccc2C(=O)N1CCCC(=C(c1ccc(O)cc1)c1ccc(O)cc1)[c-]1cccc1.[Fe+2].c1cc[cH-]c1` (stereo not drawn) [Compound 27, S-{2,3-Dihydro-2-[4-ferrocenyl-5,5-bis-(4-hydroxyphenyl)-pent-4-enyl]-1H-isoindol-1-one-3-yl}-1-thia-4,7,10,13,16,19,22-heptaoxatricosane], the “solubility in aqueous medium” value in data set [1] is listed as “none of these compounds were soluble in aqueous medium”.

For `O=C1c2ccccc2C(=O)N1CCCC(=C(c1ccc(O)cc1)c1ccc(O)cc1)[c-]1cccc1.[Fe+2].c1cc[cH-]c1` [A], the values for the IC50 in data set [2] and in data set [3] were 0.018 µM and 0.145 µM, respectively.

On to `O=C1CCC(=O)N1CCCC(=C(c1ccc(O)cc1)c1ccc(O)cc1)[c-]1cccc1.[Fe+2].c1cc[cH-]c1` [Compound B], for which, in data set [4], the 50% growth inhibitory concentration (GI50) is approximately 0.1 µM. For the same molecule, in data set [3], the concentration for half-maximal inhibition (IC50) is 0.035 µM.

`O=C1c2ccccc2C(CCO)N1CCCC(=C(c1ccc(O)cc1)c1ccc(O)cc1)[c-]1cccc1.[Fe+2].c1cc[cH-]c1` (stereo not drawn) [Compound 20, 2,3-Dihydro-3-(2-hydroxyethyl)-2-[4-ferrocenyl-5,5-bis-(4-hydroxyphenyl)-pent-4-enyl]-1H-isoindol-1-one]: the concentration giving a half-maximal response (EC50) stood at 6.3 ± 2.1 µM with MDA-MB-231, 10.6 ± 0.3 µM in the data set on MCF-7 and 5 ± 0.2 µM with hTERT-RPE1. For the same molecule, in data set [1], the “solubility in organic solvents” value is on record as “poorly soluble in organic solvents, except for DMSO”. Further, in data set [1], the “solubility in aqueous medium” value is recorded as “none of these compounds were soluble in aqueous medium”. Moreover, the “enzymatic oxidation to quinone methide” value at HRP was “rapidly converted to bright pink adducts”. In addition, the “toxicity on hTERT-RPE1 compared with MCF-7” value in the data set with hTERT-RPE1 is “twice more toxic”.

Consider `O=C1c2ccccc2C(CCCCCCO)N1CCCC(=C(c1ccc(O)cc1)c1ccc(O)cc1)[c-]1cccc1.[Fe+2].c1cc[cH-]c1` (stereo not drawn) [Compound 21, 2,3-Dihydro-3-(6-hydroxyhexyl)-2-[4-ferrocenyl-5,5-bis-(4-hydroxyphenyl)-pent-4-enyl]-1H-isoindol-1-one], for which the “solubility in organic solvents” value in data set [1] is reported as “improved the solubility in organic solvents including DCM”.

With `C#CCCCC1c2ccccc2C(=O)N1CCCC(=C(c1ccc(O)cc1)c1ccc(O)cc1)[c-]1cccc1.[Fe+2].c1cc[cH-]c1` (stereo not drawn) [Compound 23, 2,3-Dihydro-3-(pent-4-ynyl)-2-[4-ferrocenyl-5,5-bis-(4-hydroxyphenyl)-pent-4-enyl]-1H-isoindol-1-one], the figures for the EC50 with MDA-MB-231, with MCF-7 and in the data set on hTERT-RPE1 were 2.4 ± 0.5 µM, 4.2 ± 0.7 µM and 12.9 ± 3.3 µM, respectively. Further, at HRP, the “enzymatic oxidation to quinone methide” value was “rapidly converted to bright pink adducts”. The “selectivity: less toxic on hTERT-RPE1 with respect to MCF-7” value in the data set on hTERT-RPE1 (ratio of EC50 values) was determined as 3 fold.

As to `O=C1c2ccccc2C(OCCOCCOCCOCCO)N1CCCC(=C(c1ccc(O)cc1)c1ccc(O)cc1)[c-]1cccc1.[Fe+2].c1cc[cH-]c1` (stereo not drawn) [Compound 22, O-{2,3-Dihydro-2-[4-ferrocenyl-5,5-bis-(4-hydroxyphenyl)-pent-4-enyl]-1H-isoindol-1-one-3-yl}-12-hydroxy-1,4,7,10-tetraoxadodecane], the concentration giving a half-maximal response (EC50) stood at 8.8 ± 2.5 µM with MDA-MB-231, 29.9 ± 1.3 µM with MCF-7 and 24.7 ± 1.1 µM with hTERT-RPE1. The “solubility in aqueous medium” value in data set [1] was “none of these compounds were soluble in aqueous medium”. In addition, the “enzymatic oxidation to quinone methide” value at HRP is listed as “rapidly converted to bright pink adducts”. Moreover, the “toxicity on hTERT-RPE1 compared with MCF-7” value in the data set on hTERT-RPE1 is given as “similar”.
